From PubChem BioAssay AID330 (DTP/NCI, 2004)
“And” between values parts separate entries of the source, which are not always exact repeats. Equal entries are not always repeated. Inconclusive results and toxic doses are left out. The calls were made as follows: active = survival T/C of 150% or more; inactive = T/C below 125% in these data.

System: P388 leukemia ip, CD2F1 mice, survival T/C
Assay: NCI In Vivo Anticancer Drug Screen. Data for tumor model P388 Leukemia (intraperitoneal) in CD2F1 (CDF1) mice
Conditions: endpoint: median survival time, higher = longer survival
How it was run: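 Mice carrying the transplanted tumor received test compound or vehicle. Survival was recorded in each group, and the value is the treated-group measurement divided by that of the vehicle-treated control group.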

[1] = dose: 25.0 mg/kg/injection, schedule: Q04DX003 (ip), vehicle: saline
[2] = dose: 50.0 mg/kg/injection, schedule: Q04DX003 (ip), vehicle: saline
[3] = dose: 100.0 mg/kg/injection, schedule: Q04DX003 (ip), vehicle: saline
[4] = dose: 50.0 mg/kg/injection, schedule: Q04DX002 (ip), vehicle: Klucel (hydroxypropylcellulose) (HPC)
[5] = dose: 100.0 mg/kg/injection, schedule: Q04DX002 (ip), vehicle: Klucel (hydroxypropylcellulose) (HPC)
[6] = dose: 50.0 mg/kg/injection, schedule: Q01DX005 (ip), vehicle: Klucel (hydroxypropylcellulose) (HPC)
[7] = dose: 100.0 mg/kg/injection, schedule: Q01DX005 (ip), vehicle: Klucel (hydroxypropylcellulose) (HPC)
[8] = dose: 200.0 mg/kg/injection, schedule: Q01DX005 (ip), vehicle: Klucel (hydroxypropylcellulose) (HPC)
[9] = dose: 50.0 mg/kg/injection, schedule: Q01DX005 (ip), vehicle: saline with Tween-80
[10] = dose: 100.0 mg/kg/injection, schedule: Q01DX005 (ip), vehicle: saline with Tween-80
[11] = dose: 200.0 mg/kg/injection, schedule: Q01DX005 (ip), vehicle: saline with Tween-80

Measured: T/C

O=C(CCS(=O)(=O)CCC(=O)c1ccc2ccccc2c1)c1ccc2ccccc2c1
inactive: [1] 102 % of control | [2] 99 % of control | [3] 92 % of control and 98 % of control | dose: 400.0 mg/kg/injection, schedule: Q04DX003 (ip), vehicle: saline 88 % of control

CN1OC(C#N)CC1c1ccccc1 (stereo not drawn)
inactive: dose: 12.5 mg/kg/injection, schedule: Q04DX002 (ip), vehicle: Klucel (hydroxypropylcellulose) (HPC) 100 % of control | dose: 25.0 mg/kg/injection, schedule: Q04DX002 (ip), vehicle: Klucel (hydroxypropylcellulose) (HPC) 99 % of control and 101 % of control | [4] 101 % of control and 112 % of control | dose: 87.5 mg/kg/injection, schedule: Q04DX002 (ip), vehicle: Klucel (hydroxypropylcellulose) (HPC) 101 % of control | [5] 103 % of control and 105 % of control and 121 % of control | dose: 350.0 mg/kg/injection, schedule: Q04DX002 (ip), vehicle: Klucel (hydroxypropylcellulose) (HPC) 100 % of control

c1c(NC2=NCCO2)cc2c3c1CCCN3CCC2
inactive: dose: 12.5 mg/kg/injection, schedule: Q04DX003 (ip), vehicle: saline with Tween-80 90 % of control | dose: 25.0 mg/kg/injection, schedule: Q04DX003 (ip), vehicle: saline with Tween-80 100 % of control | dose: 50.0 mg/kg/injection, schedule: Q04DX003 (ip), vehicle: saline with Tween-80 109 % of control

O=C1C2=C(CCC2)C(=O)N1c1ccc(N2C(=O)C3=C(CCC3)C2=O)cc1
inactive: dose: 1.56 mg/kg/injection, schedule: Q01DX009 (ip), vehicle: distilled water + Tween-80 101 % of control | dose: 3.13 mg/kg/injection, schedule: Q01DX009 (ip), vehicle: distilled water + Tween-80 102 % of control | dose: 6.25 mg/kg/injection, schedule: Q01DX009 (ip), vehicle: distilled water + Tween-80 100 % of control | dose: 12.5 mg/kg/injection, schedule: Q01DX009 (ip), vehicle: distilled water + Tween-80 99 % of control | dose: 25.0 mg/kg/injection, schedule: Q01DX009 (ip), vehicle: distilled water + Tween-80 107 % of control | dose: 50.0 mg/kg/injection, schedule: Q01DX009 (ip), vehicle: distilled water + Tween-80 103 % of control | dose: 100.0 mg/kg/injection, schedule: Q01DX009 (ip), vehicle: distilled water + Tween-80 119 % of control

CSc1ccnc2cc(Cl)ccc12
inactive: [6] 96 % of control | [7] 106 % of control | [8] 110 % of control

CC(=O)NNC(=O)NCCCCCCNC(=O)NNC(C)=O
inactive: [6] 101 % of control | [7] 97 % of control | [8] 92 % of control | dose: 400.0 mg/kg/injection, schedule: Q01DX005 (ip), vehicle: Klucel (hydroxypropylcellulose) (HPC) 94 % of control

C=CCNC(=O)/C(C)=C(\C)c1ccccc1
inactive: [4] 102 % of control | [5] 102 % of control | dose: 200.0 mg/kg/injection, schedule: Q04DX002 (ip), vehicle: Klucel (hydroxypropylcellulose) (HPC) 103 % of control

C=C(C)c1nc(N)nc(N(C)C)n1
inactive: [6] 100 % of control | [7] 102 % of control | [8] 100 % of control

C[C@H]1C/C=C/[C@H]2[C@@H]3O[C@]3(C)[C@@H](C)[C@H]3[C@H](Cc4ccccc4)NC(=O)[C@]32OC(=O)O/C=C/[C@@](C)(O)C1=O
inactive: dose: 1.25 mg/kg/injection, schedule: Q01DX009 (ip), vehicle: Klucel (hydroxypropylcellulose) (HPC) 99 % of control | dose: 2.5 mg/kg/injection, schedule: Q01DX009 (ip), vehicle: Klucel (hydroxypropylcellulose) (HPC) 94 % of control | dose: 5.0 mg/kg/injection, schedule: Q01DX009 (ip), vehicle: Klucel (hydroxypropylcellulose) (HPC) 97 % of control | dose: 10.0 mg/kg/injection, schedule: Q01DX009 (ip), vehicle: Klucel (hydroxypropylcellulose) (HPC) 88 % of control

COc1ccc2c(C)cc(N/N=C\c3ccnc4ccccc34)nc2c1
inactive: [6] 91 % of control | [7] 92 % of control | [8] 90 % of control

O=C1NNC(c2ccccc2)=Nc2ccccc21
inactive: dose: 100.0 mg/kg/injection, schedule: Q04DX002 (ip), vehicle: saline with Tween-80 96 % of control | dose: 200.0 mg/kg/injection, schedule: Q04DX002 (ip), vehicle: saline with Tween-80 96 % of control | dose: 400.0 mg/kg/injection, schedule: Q04DX002 (ip), vehicle: saline with Tween-80 94 % of control

COc1cccc2c(Nc3ccc4c(c3)OCO4)c(C(=O)O)cnc12
inactive: dose: 60.0 mg/kg/injection, schedule: Q01DX005 (ip), vehicle: Klucel + Tween-80 94 % of control | dose: 120.0 mg/kg/injection, schedule: Q01DX005 (ip), vehicle: Klucel + Tween-80 103 % of control

C=C1CC2(C)CCC(OC(=O)C3(C)OC3C)C(C)(OC(C)=O)C2CC1=C(C)C (stereo not drawn)
inactive: dose: 150.0 mg/kg/injection, schedule: Q01DX001 (ip), vehicle: Klucel (hydroxypropylcellulose) (HPC) 99 % of control | dose: 300.0 mg/kg/injection, schedule: Q01DX001 (ip), vehicle: Klucel (hydroxypropylcellulose) (HPC) 98 % of control

O=C(O)CCC/C=N/O
inactive: dose: 100.0 mg/kg/injection, schedule: Q04DX003 (ip), vehicle: Klucel (hydroxypropylcellulose) (HPC) 98 % of control | dose: 200.0 mg/kg/injection, schedule: Q04DX003 (ip), vehicle: Klucel (hydroxypropylcellulose) (HPC) 99 % of control | dose: 400.0 mg/kg/injection, schedule: Q04DX003 (ip), vehicle: Klucel (hydroxypropylcellulose) (HPC) 102 % of control

CC(=O)/C(C)=C/C(=O)O
inactive: dose: 25.0 mg/kg/injection, schedule: Q01DX009 (ip), vehicle: saline 100 % of control | [1] 104 % of control | dose: 50.0 mg/kg/injection, schedule: Q01DX009 (ip), vehicle: saline 100 % of control | [2] 122 % of control | dose: 100.0 mg/kg/injection, schedule: Q01DX009 (ip), vehicle: saline 109 % of control | [3] 100 % of control

CN(C)CCCn1c2c(c3ccccc31)CCCCC2
inactive: [9] 97 % of control | [10] 101 % of control | [11] 94 % of control

Cc1ccc(-n2c(COc3c(C)cccc3C)n[nH]c2=S)cc1
inactive: dose: 12.5 mg/kg/injection, schedule: Q01DX009 (ip), vehicle: Klucel (hydroxypropylcellulose) (HPC) 100 % of control | dose: 25.0 mg/kg/injection, schedule: Q01DX009 (ip), vehicle: Klucel (hydroxypropylcellulose) (HPC) 100 % of control | [6] 90 % of control | dose: 50.0 mg/kg/injection, schedule: Q01DX009 (ip), vehicle: Klucel (hydroxypropylcellulose) (HPC) 109 % of control | [8] 89 % of control

Cc1ccc(C(O)(CS(C)=O)c2ccco2)cc1 (stereo not drawn)
inactive: dose: 12.5 mg/kg/injection, schedule: Q01DX009 (ip), vehicle: saline with Tween-80 100 % of control | dose: 25.0 mg/kg/injection, schedule: Q01DX009 (ip), vehicle: saline with Tween-80 100 % of control | dose: 50.0 mg/kg/injection, schedule: Q01DX009 (ip), vehicle: saline with Tween-80 100 % of control

COc1ccc2nccc(CC(O)C(Cl)(Cl)Cl)c2c1 (stereo not drawn)
inactive: [9] 105 % of control | [10] 93 % of control | [11] 101 % of control

CN(C)CCOc1cccc(NC2=C(Cl)C(=O)C(Nc3cccc(OCCN(C)C)c3)=C(Cl)C2=O)c1
inactive: dose: 1.56 mg/kg/injection, schedule: Q01DX005 (ip), vehicle: Klucel (hydroxypropylcellulose) (HPC) 100 % of control and 107 % of control | dose: 3.12 mg/kg/injection, schedule: Q01DX005 (ip), vehicle: Klucel (hydroxypropylcellulose) (HPC) 107 % of control and 96 % of control | dose: 6.25 mg/kg/injection, schedule: Q01DX005 (ip), vehicle: Klucel (hydroxypropylcellulose) (HPC) 104 % of control and 122 % of control and 97 % of control
